From ChEMBL document CHEMBL1201862, “PubChem BioAssay data set” (2004)
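Five concentrations, 48 hours, 96-well plates. GI50 = concentration required for 50% inhibition of growth.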 Active and inactive are the calls of the source. Cut-off read from the data, not from the text of the source: active = GI50 up to about 1.1 µM and inactive = higher.

Key:
Assay in all cases: DTP human tumour cell line panel, 48 h
[1] = test system: 786-0
[2] = test system: SK-MEL-2
[3] = test system: SNB-75
[4] = test system: U-251
[5] = test system: SF-539
[6] = test system: HCC 2998
[7] = test system: OVCAR-5
[8] = test system: BT-549
[9] = test system: OVCAR-3
[10] = test system: CCRF-CEM
[11] = test system: HCT-116
[12] = test system: RXF 393
[13] = test system: MDA-MB-231
[14] = test system: NCI-H522
[15] = test system: DU-145
[16] = test system: MDA-MB-435
[17] = test system: SW-620
[18] = test system: NCI-H460
[19] = test system: RPMI-8226
[20] = test system: PC-3
[21] = test system: MCF7
[22] = test system: CAKI-1
[23] = test system: IGROV-1
[24] = test system: A498
[25] = test system: HT-29
[26] = test system: SN12C
[27] = test system: Malme-3M
[28] = test system: MDA-N
[29] = test system: SF-268
[30] = test system: COLO 205
[31] = test system: HL-60
[32] = test system: T47D
[33] = test system: SF-295
[34] = test system: KM12
[35] = test system: MOLT-4
[36] = test system: SR
[37] = test system: EKVX
[38] = test system: TK-10
[39] = test system: A549
[40] = test system: OVCAR-8
[41] = test system: SK-MEL-5
[42] = test system: LOX IMVI
[43] = test system: M14
[44] = test system: K562
[45] = test system: NCI/ADR-RES
[46] = test system: UACC-62
[47] = test system: NCI-H23
[48] = test system: NCI-H226
[49] = test system: HCT-15
[50] = test system: SNB-19
[51] = test system: UACC-257
[52] = test system: SK-MEL-28
[53] = test system: HOP-62
[54] = test system: Hs-578T
[55] = test system: UO-31
[56] = test system: SK-OV-3
[57] = test system: ACHN
[58] = test system: HOP-92
[59] = test system: OVCAR-4

With `CC(C)=CCC[C@](C)(O)[C@H]1CC[C@]2(C)[C@@H]1[C@H](O)C[C@@H]1[C@@]3(C)CC[C@H](O[C@@H]4O[C@H](CO)[C@@H](O)[C@H](O)[C@H]4O)C(C)(C)[C@@H]3CC[C@]12C` [GINSENOSIDE RH2] as the molecule, how does the GI50 [1] read?
Its GI50 is 20.2 µM (inactive).

And the GI50 [2]?
Its GI50 is 15.9 µM (inactive).

What about the GI50 [3] of the same molecule?
The GI50 was 19.1 µM (inactive).

What about the GI50 [4] of the same molecule?
Its GI50 is 17.7 µM (inactive).

And the GI50 [5]?
Its GI50 is 22.2 µM (inactive).

And the GI50 [6]?
The GI50 was 27.9 µM (inactive).

And the GI50 [7]?
The GI50 was 26.2 µM (inactive).

What about the GI50 [8] of the same molecule?
The GI50 was 18 µM (inactive).

And the GI50 [9]?
The GI50 was 17.9 µM (inactive).

And the GI50 [10]?
The GI50 was 23.5 µM (inactive).

What about the GI50 [11] of the same molecule?
Its GI50 is 26.2 µM (inactive).

What about the GI50 [12] of the same molecule?
The GI50 was 17 µM (inactive).

What about the GI50 [13] of the same molecule?
The GI50 was 18.2 µM (inactive).

And the GI50 [14]?
The GI50 was 17.2 µM (inactive).

What about the GI50 [15] of the same molecule?
The GI50 was 19.5 µM (inactive).

What about the GI50 [16] of the same molecule?
Its GI50 is 18.2 µM (inactive).

What about the GI50 [17] of the same molecule?
Its GI50 is 19.5 µM (inactive).

What about the GI50 [18] of the same molecule?
The GI50 was 16.6 µM (inactive).

What about the GI50 [19] of the same molecule?
The GI50 was 19.1 µM (inactive).

And the GI50 [20]?
The GI50 was 17.6 µM (inactive).

And the GI50 [21]?
The GI50 was 17.3 µM (inactive).

And the GI50 [22]?
Its GI50 is 18.7 µM (inactive).

What about the GI50 [23] of the same molecule?
Its GI50 is 16.3 µM (inactive).

And the GI50 [24]?
Its GI50 is 19.8 µM (inactive).

And the GI50 [25]?
The GI50 was 15.5 µM (inactive).

What about the GI50 [26] of the same molecule?
Its GI50 is 16.7 µM (inactive).

And the GI50 [27]?
The GI50 was 18.4 µM (inactive).

And the GI50 [28]?
The GI50 was 19.8 µM (inactive).

What about the GI50 [29] of the same molecule?
Its GI50 is 15.8 µM (inactive).

What about the GI50 [30] of the same molecule?
Its GI50 is 19.5 µM (inactive).

What about the GI50 [31] of the same molecule?
Its GI50 is 21 µM (inactive).

What about the GI50 [32] of the same molecule?
The GI50 was 18.2 µM (inactive).

And the GI50 [33]?
Its GI50 is 23 µM (inactive).

What about the GI50 [34] of the same molecule?
The GI50 was 17.6 µM (inactive).

And the GI50 [35]?
Its GI50 is 17.1 µM (inactive).

And the GI50 [36]?
Its GI50 is 14 µM (inactive).

And the GI50 [37]?
Its GI50 is 22.7 µM (inactive).

And the GI50 [38]?
Its GI50 is 21.4 µM (inactive).

And the GI50 [39]?
Its GI50 is 18.8 µM (inactive).

What about the GI50 [40] of the same molecule?
The GI50 was 17.9 µM (inactive).

What about the GI50 [41] of the same molecule?
The GI50 was 18.1 µM (inactive).

What about the GI50 [42] of the same molecule?
The GI50 was 29 µM (inactive).

What about the GI50 [43] of the same molecule?
Its GI50 is 27.2 µM (inactive).

What about the GI50 [44] of the same molecule?
Its GI50 is 19.8 µM (inactive).

And the GI50 [45]?
Its GI50 is 25.1 µM (inactive).

What about the GI50 [46] of the same molecule?
The GI50 was 16.6 µM (inactive).

What about the GI50 [47] of the same molecule?
Its GI50 is 20.6 µM (inactive).

What about the GI50 [48] of the same molecule?
The GI50 was 17.6 µM (inactive).

What about the GI50 [49] of the same molecule?
Its GI50 is 17.5 µM.

What about the GI50 [50] of the same molecule?
Its GI50 is 20 µM (inactive).

What about the GI50 [51] of the same molecule?
Its GI50 is 20.9 µM (inactive).

What about the GI50 [52] of the same molecule?
Its GI50 is 19.9 µM (inactive).

What about the GI50 [53] of the same molecule?
Its GI50 is 32.6 µM (inactive).

What about the GI50 [54] of the same molecule?
Its GI50 is 21.9 µM (inactive).

What about the GI50 [55] of the same molecule?
Its GI50 is 17.4 µM (inactive).

What about the GI50 [56] of the same molecule?
The GI50 was 18.5 µM (inactive).

And the GI50 [57]?
Its GI50 is 17.8 µM (inactive).

What about the GI50 [58] of the same molecule?
The GI50 was 18.7 µM (inactive).

What about the GI50 [59] of the same molecule?
Its GI50 is 21.5 µM (inactive).
